# According to patent publication US7888363B2, “Viral polymerase inhibitors” (Boehringer Ingelheim International GmbH, priority 2003, dated 2011):
# Target: hepatitis C virus RNA dependant polymerase (NS5B) (Hepatitis C virus genotype 1b, UniProt P26663)
# Assay: Inhibition of NS5B RNA dependent RNA polymerase activity
# Format: biochemical
# Settings: Table 7; class ranges
# Method: A suitable assay is described in the examples.
# Inhibition of NS5B RNA Dependent RNA Polymerase Activity
# The compounds of the invention were tested for inhibitory activity against the hepatitis C virus RNA dependant polymerase (NS5B), according to protocol described in WO 03/010141
# Chain of hepatitis C virus RNA dependant polymerase (NS5B) (P26663 2420-3010): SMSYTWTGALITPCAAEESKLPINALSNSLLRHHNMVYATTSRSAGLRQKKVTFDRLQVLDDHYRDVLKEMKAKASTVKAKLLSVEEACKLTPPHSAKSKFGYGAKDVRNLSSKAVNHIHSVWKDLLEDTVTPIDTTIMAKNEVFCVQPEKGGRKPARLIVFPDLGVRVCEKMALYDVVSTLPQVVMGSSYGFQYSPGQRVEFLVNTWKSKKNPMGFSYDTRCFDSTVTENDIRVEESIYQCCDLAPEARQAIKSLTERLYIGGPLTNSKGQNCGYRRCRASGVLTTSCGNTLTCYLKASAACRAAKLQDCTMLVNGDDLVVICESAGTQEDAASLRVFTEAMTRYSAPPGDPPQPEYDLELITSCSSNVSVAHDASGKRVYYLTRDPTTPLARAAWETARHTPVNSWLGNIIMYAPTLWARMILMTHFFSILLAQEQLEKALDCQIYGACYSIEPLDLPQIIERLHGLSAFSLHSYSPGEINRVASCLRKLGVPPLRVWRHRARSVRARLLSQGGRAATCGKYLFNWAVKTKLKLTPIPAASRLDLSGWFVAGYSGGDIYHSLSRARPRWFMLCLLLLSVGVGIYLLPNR
row,IC50 [µM],SMILES
1,1 to 10,O=C(NC1CCN(Cc2ccccc2)C1)c1ccc2c(c1)c(C1CCCCC1)c(-c1ccoc1)n2CC(=O)N1CCC(N2CCCC2)CC1 (stereo not shown) [Example 7040]
2,1 to 10,O=C(N[C@H]1CC[C@H](O)CC1)c1ccc2c(c1)c(C1CCCCC1)c(-c1ccoc1)n2CC(=O)N1CCC(N2CCCC2)CC1 [Example 7041]
3,1 to 10,O=C(NCc1ccc(F)c(C(F)(F)F)c1)c1ccc2c(c1)c(C1CCCCC1)c(-c1ccoc1)n2CC(=O)N1CCC(N2CCCC2)CC1 [Example 7042]
4,1 to 10,O=C(NCCN1CCNC1=O)c1ccc2c(c1)c(C1CCCCC1)c(-c1ccoc1)n2CC(=O)N1CCC(N2CCCC2)CC1 [Example 7044]
5,1 to 10,O=C(O)c1ccc(CNC(=O)c2ccc3c(c2)c(C2CCCCC2)c(-c2ccoc2)n3CC(=O)N2CCC(N3CCCC3)CC2)cc1 [Example 7045]
6,1 to 10,CC(C)CC(NC(=O)c1ccc2c(c1)c(C1CCCCC1)c(-c1ccoc1)n2CC(=O)N1CCC(N2CCCC2)CC1)C(N)=O (stereo not shown) [Example 7046]
7,1 to 10,CC(C)(C)OC(=O)C(C)(C)NC(=O)c1ccc2c(c1)c(C1CCCCC1)c(-c1ccoc1)n2CC(=O)N1CCC(N2CCCC2)CC1 [Example 7047]
8,1 to 10,Cc1oc(-c2ccc(NC(=O)c3ccc4c(c3)c(C3CCCCC3)c(-c3ccoc3)n4CC(=O)N3CCC(N4CCCC4)CC3)cc2)cc1C(=O)O [Example 7048]
9,1 to 10,O=C(NC(CCO)c1ccccc1)c1ccc2c(c1)c(C1CCCCC1)c(-c1ccoc1)n2CC(=O)N1CCC(N2CCCC2)CC1 (stereo not shown) [Example 7049]
10,1 to 10,O=C(O)CC(NC(=O)c1ccc2c(c1)c(C1CCCCC1)c(-c1ccoc1)n2CC(=O)N1CCC(N2CCCC2)CC1)C(F)(F)F (stereo not shown) [Example 7051]
11,1 to 10,Cc1cnc(CNC(=O)c2ccc3c(c2)c(C2CCCCC2)c(-c2ccoc2)n3CC(=O)N2CCC(N3CCCC3)CC2)cn1 [Example 7052]
12,0.2 to 1,CN1C(C)(C)CC(NC(=O)c2ccc3c(c2)c(C2CCCCC2)c(-c2ccoc2)n3CC(=O)N2CCC(N3CCCC3)CC2)CC1(C)C [Example 7053]
13,1 to 10,O=C(NC[C@H]1CC[C@H](C(=O)O)CC1)c1ccc2c(c1)c(C1CCCCC1)c(-c1ccoc1)n2CC(=O)N1CCC(N2CCCC2)CC1 [Example 7054]
14,1 to 10,O=C(O)Cc1cccc(NC(=O)c2ccc3c(c2)c(C2CCCCC2)c(-c2ccoc2)n3CC(=O)N2CCC(N3CCCC3)CC2)c1 [Example 7055]
15,1 to 10,O=C(O)CCc1cccc(NC(=O)c2ccc3c(c2)c(C2CCCCC2)c(-c2ccoc2)n3CC(=O)N2CCC(N3CCCC3)CC2)c1 [Example 7056]
16,1 to 10,COC(=O)C(Cc1ccc(O)cc1)NC(=O)c1ccc2c(c1)c(C1CCCCC1)c(-c1ccoc1)n2CC(=O)N1CCC(N2CCCC2)CC1 (stereo not shown) [Example 7057]
17,1 to 10,NC(=O)c1ccc2c(c1)c(C1CCCCC1)c(-c1ccoc1)n2CC(=O)N1CCC(N2CCCC2)CC1 [Example 7058]
18,1 to 10,O=C(NCCOCCO)c1ccc2c(c1)c(C1CCCCC1)c(-c1ccoc1)n2CC(=O)N1CCC(N2CCCC2)CC1 [Example 7059]
19,1 to 10,COC(=O)C(Cc1ccc(Cl)cc1)NC(=O)c1ccc2c(c1)c(C1CCCCC1)c(-c1ccoc1)n2CC(=O)N1CCC(N2CCCC2)CC1 (stereo not shown) [Example 7060]
20,1 to 10,CC(C)(C)NC(=O)[C@@H]1Cc2ccccc2CN1C(=O)c1ccc2c(c1)c(C1CCCCC1)c(-c1ccoc1)n2CC(=O)N1CCC(N2CCCC2)CC1 [Example 7061]
21,1 to 10,O=C(O)/C=C/c1ccc(NC(=O)C2(NC(=O)c3ccc4c(c3)c(C3CCCCC3)c(-c3ccoc3)n4CC(=O)N3CCC(N4CCCC4)CC3)CCC2)cc1 [Example 7062]
22,1 to 10,O=C(NS(=O)(=O)c1ccccc1)c1ccc2c(c1)c(C1CCCCC1)c(-c1ccoc1)n2CC(=O)N1CCC(N2CCCC2)CC1 [Example 7063]
